Experimental data as given in US20250120989A1, “BRIDGED TRICYCLIC CARBAMOYLPYRIDONE COMPOUNDS AND USES THEREOF” (priority 2023, published 2025).
In brackets after ≈: the same amount, converted by molar mass.

How the values were obtained:
physchem = settings: 23 °C, thermodynamic from solid; for solubility thermodynamic at 24 h: FaSSIF
in vitro = settings: human; for CC50 at 5 days: uninfected MT-4 cells
HIV-1 (IIIB) = assay: microbe, parasite or virus in culture; assay type: cell-based; settings: Human immunodeficiency virus 1, MT4, 120 h; HIV-1 (IIIB) replication in MT-4 cells, 5 days, Cell Titer Glo; read-out: MT4 EC50

SMILES	solubility thermodynamic at 24 h (physchem) [µg/mL]	CC50 at 5 days (in vitro) [µM]	EC50 (HIV-1 (IIIB)) [µM]	solubility thermodynamic (physchem; fassif) [µg/mL]	CC50 (in vitro) [µM]
CC1=NO[C@@]2(CC[C@H](C)N3C[C@H]2n2cc(C(=O)NCc4ccc(F)cc4F)c(=O)c(OCOC(=O)OCCOP(=O)(O)O)c2C3=O)C1 [Compound 4, (((3′S,5S,7′R)-10′-((2,4-difluorobenzyl)carbamoyl)-3,3′-dimethyl-1′,11′-dioxo-1′,4′,5′,11′-tetrahydro-3′H,4H,7′H-spiro[isoxazole-5,6′-[2,7]methanopyrido[1,2-a][1,4]diazonin]-12′-yl)oxy)methyl (2-(phosphonooxy)ethyl) carbonate]	4300 (≈ 6.28 mM)	11.6	0.00095	–	–
COC1=NO[C@@]2(CC[C@H](C)N3C[C@H]2n2cc(C(=O)NCc4ccc(F)cc4F)c(=O)c(OCOC(=O)OCCN(CC(=O)O)C(=O)OCOP(=O)(O)O)c2C3=O)C1 [Compound 8, N-(2-((((((3′S,5S,7′R)-10′-((2,4-difluorobenzyl)carbamoyl)-3-methoxy-3′-methyl-1′,11′-dioxo-1′,4′,5′,11′-tetrahydro-3′H,4H,7′H-spiro[isoxazole-5,6′-[2,7]methanopyrido[1,2-a][1,4]diazonin]-12′-yl)oxy)methoxy)carbonyl)oxy)ethyl)-N-(((phosphonooxy)methoxy)carbonyl)glycine]	3020 (≈ 3.63 mM)	17.8	0.00204	–	–
CC1=NO[C@@]2(CC[C@H](C)N3C[C@H]2n2cc(C(=O)NCc4ccc(F)cc4F)c(=O)c(OCOC(=O)OCC(C)(C)COP(=O)(O)O)c2C3=O)C1 [Compound 12, (((3′S,5S,7′R)-10′-((2,4-difluorobenzyl)carbamoyl)-3,3′-dimethyl-1′,11′-dioxo-1′,4′,5′,11′-tetrahydro-3′H,4H,7′H-spiro[isoxazole-5,6′-[2,7]methanopyrido[1,2-a][1,4]diazonin]-12′-yl)oxy)methyl (2,2-dimethyl-3-(phosphonooxy)propyl) carbonate]	5280 (≈ 7.27 mM)	14	0.00201	–	–
CC1=NO[C@@]2(CC[C@H](C)N3C[C@H]2n2cc(C(=O)NCc4ccc(F)cc4F)c(=O)c(OCOC(=O)OCC[N+](C)(C)C)c2C3=O)C1 [Compound 15, 2-((((((3′S,5S,7′R)-10′-((2,4-difluorobenzyl)carbamoyl)-3,3′-dimethyl-1′,11′-dioxo-1′,4′,5′,11′-tetrahydro-3′H,4H,7′H-spiro[isoxazole-5,6′-[2,7]methanopyrido[1,2-a][1,4]diazonin]-12′-yl)oxy)methoxy)carbonyl)oxy)-N,N,Ntrimethylethan-1-aminium trifluoroacetic acid]	4370	17.3	–	–	–
CC1=NO[C@@]2(CC[C@H](C)N3C[C@H]2n2cc(C(=O)NCc4ccc(F)cc4F)c(=O)c(OC(=O)OCC[N+](C)(C)C)c2C3=O)C1 [Compound 16, 2-(((((3′S,5S,7′R)-10′-((2,4-difluorobenzyl)carbamoyl)-3,3′-dimethyl-1′,11′-dioxo-1′,4′,5′,11′-tetrahydro-3′H,4H,7′H-spiro[isoxazole-5,6′-[2,7]methanopyrido[1,2-a][1,4]diazonin]-12′-yl)oxy)carbonyl)oxy)-N,N,N-trimethylethan-1-aminium trifluoroacetic acid]	2230	14.1	–	–	–
CC1=NO[C@@]2(CC[C@H](C)N3C[C@H]2n2cc(C(=O)NCc4ccc(F)cc4F)c(=O)c(OCOC(=O)O[C@H](C)COP(=O)(O)O)c2C3=O)C1 [Compound 18, (((3′S,5S,7′R)-10′-((2,4-difluorobenzyl)carbamoyl)-3,3′-dimethyl-1′,11′-dioxo-1′,4′,5′,11′-tetrahydro-3′H,4H,7′H-spiro[isoxazole-5,6′-[2,7]methanopyrido[1,2-a][1,4]diazonin]-12′-yl)oxy)methyl ((R)-1-(phosphonooxy)propan-2-yl) carbonate]	–	12.1	0.00227	–	–
CC1=NO[C@@]2(CC[C@H](C)N3C[C@H]2n2cc(C(=O)NCc4ccc(F)cc4F)c(=O)c(OCOC(=O)CCCCOP(=O)(O)O)c2C3=O)C1 [Compound 20, (((3′S,5S,7′R)-10′-((2,4-difluorobenzyl)carbamoyl)-3,3′-dimethyl-1′,11′-dioxo-1′,4′,5′,11′-tetrahydro-3′H,4H,7′H-spiro[isoxazole-5,6′-[2,7]methanopyrido[1,2-a][1,4]diazonin]-12′-yl)oxy)methyl 5-(phosphonooxy)pentanoate]	–	20.4	0.00237	–	–
CC1=NO[C@@]2(CC[C@H](C)N3C[C@H]2n2cc(C(=O)NCc4ccc(F)cc4F)c(=O)c(OCOC(=O)O[C@@H](C)C[C@H](C)OP(=O)(O)O)c2C3=O)C1 [Compound 30, (((3′S,5S,7′R)-10′-((2,4-difluorobenzyl)carbamoyl)-3,3′-dimethyl-1′,11′-dioxo-1′,4′,5′,11′-tetrahydro-3′H,4H,7′H-spiro[isoxazole-5,6′-[2,7]methanopyrido[1,2-a][1,4]diazonin]-12′-yl)oxy)methyl ((2S,4S)-4-(phosphonooxy)pentan-2-yl) carbonate]	–	10.3	0.00272	–	–
CC1=NO[C@@]2(CC[C@H](C)N3C[C@H]2n2cc(C(=O)NCc4ccc(F)cc4F)c(=O)c(OCOC(=O)OCCCCOP(=O)(O)O)c2C3=O)C1 [Compound 34, (((3′S,5S,7′R)-10′-((2,4-difluorobenzyl)carbamoyl)-3,3′-dimethyl-1′,11′-dioxo-1′,4′,5′,11′-tetrahydro-3′H,4H,7′H-spiro[isoxazole-5,6′-[2,7]methanopyrido[1,2-a][1,4]diazonin]-12′-yl)oxy)methyl (4-(phosphonooxy)butyl) carbonate]	–	–	–	4890 (≈ 6.86 mM)	50
CC1=NO[C@@]2(CC[C@H](C)N3C[C@H]2n2cc(C(=O)NCc4ccc(F)cc4F)c(=O)c(OCOC(=O)C4(CCN(CC(=O)O)C(=O)OCOP(=O)(O)O)CC4)c2C3=O)C1 [Compound 44, N-(2-(1-(((((3′S,5S,7′R)-10′-((2,4-difluorobenzyl)carbamoyl)-3,3′-dimethyl-1′,11′-dioxo-1′,4′,5′,11′-tetrahydro-3′H,4H,7′H-spiro[isoxazole-5,6′-[2,7]methanopyrido[1,2-a][1,4]diazonin]-12′-yl)oxy)methoxy)carbonyl)cyclopropyl)ethyl)-N-(((phosphonooxy)methoxy)carbonyl)glycine]	–	11.1	0.00141	–	–
CC1=NO[C@@]2(CC[C@H](C)N3C[C@H]2n2cc(C(=O)NCc4ccc(F)cc4F)c(=O)c(OCOC(=O)N(CCOP(=O)(O)O)CC(=O)O)c2C3=O)C1 [Compound 46, N-(((((3′S,5S,7′R)-10′-((2,4-difluorobenzyl)carbamoyl)-3,3′-dimethyl-1′,11′-dioxo-1′,4′,5′,11′-tetrahydro-3′H,4H,7′H-spiro[isoxazole-5,6′-[2,7]methanopyrido[1,2-a][1,4]diazonin]-12′-yl)oxy)methoxy)carbonyl)-N-(2-(phosphonooxy)ethyl)glycine]	4980 (≈ 6.72 mM)	50	–	–	–
COC1=NO[C@@]2(CC[C@H](C)N3C[C@H]2n2cc(C(=O)NCc4ccc(F)cc4F)c(=O)c(OCOC(=O)OC[C@@H](C)OP(=O)(O)O)c2C3=O)C1 [Compound 53, (((3′S,5S,7′R)-10′-((2,4-difluorobenzyl)carbamoyl)-3-methoxy-3′-methyl-1′,11′-dioxo-1′,4′,5′,11′-tetrahydro-3′H,4H,7′H-spiro[isoxazole-5,6′-[2,7]methanopyrido[1,2-a][1,4]diazonin]-12′-yl)oxy)methyl ((R)-2-(phosphonooxy)propyl) carbonate]	–	15.2	0.00196	–	–
CC1=NO[C@@]2(CC[C@H](C)N3C[C@H]2n2cc(C(=O)NCc4ccc(F)cc4F)c(=O)c(OCOC(=O)OC(C)(C)C(C)OP(=O)(O)O)c2C3=O)C1 (stereo partly drawn) [Compound 55, (((3′S,5S,7′R)-10′-((2,4-difluorobenzyl)carbamoyl)-3,3′-dimethyl-1′,11′-dioxo-1′,4′,5′,11′-tetrahydro-3′H,4H,7′H-spiro[isoxazole-5,6′-[2,7]methanopyrido[1,2-a][1,4]diazonin]-12′-yl)oxy)methyl (2-methyl-3-(phosphonooxy)butan-2-yl) carbonate]	4600 (≈ 6.33 mM)	–	–	–	–
CC1=NO[C@@]2(CC[C@H](C)N3C[C@H]2n2cc(C(=O)NCc4ccc(F)cc4F)c(=O)c(OCOC(=O)OC(C)C(C)(C)OP(=O)(O)O)c2C3=O)C1 (stereo partly drawn) [Compound 56, (((3′S,5S,7′R)-10′-((2,4-difluorobenzyl)carbamoyl)-3,3′-dimethyl-1′,11′-dioxo-1′,4′,5′,11′-tetrahydro-3′H,4H,7′H-spiro[isoxazole-5,6′-[2,7]methanopyrido[1,2-a][1,4]diazonin]-12′-yl)oxy)methyl (3-methyl-3-(phosphonooxy)butan-2-yl) carbonate]	4240 (≈ 5.84 mM)	–	–	–	–
CC1=NO[C@@]2(CC[C@H](C)N3C[C@H]2n2cc(C(=O)NCc4ccc(F)cc4F)c(=O)c(OCOC(=O)OC[C@@H](C)COP(=O)(O)O)c2C3=O)C1 [Compound 70, (((3′S,5S,7′R)-10′-((2,4-difluorobenzyl)carbamoyl)-3,3′-dimethyl-1′,11′-dioxo-1′,4′,5′,11′-tetrahydro-3′H,4H,7′H-spiro[isoxazole-5,6′-[2,7]methanopyrido[1,2-a][1,4]diazonin]-12′-yl)oxy)methyl ((R)-2-methyl-3-(phosphonooxy)propyl) carbonate]	–	15.3	0.00286	–	–
COC1=NO[C@@]2(CC[C@H](C)N3C[C@H]2n2cc(C(=O)NCc4ccc(F)cc4F)c(=O)c(OCOC(=O)OC[C@@H](C)COP(=O)(O)O)c2C3=O)C1 [Compound 71, (((3′S,5S,7′R)-10′-((2,4-difluorobenzyl)carbamoyl)-3-methoxy-3′-methyl-1′,11′-dioxo-1′,4′,5′,11′-tetrahydro-3′H,4H,7′H-spiro[isoxazole-5,6′-[2,7]methanopyrido[1,2-a][1,4]diazonin]-12′-yl)oxy)methyl ((R)-2-methyl-3-(phosphonooxy)propyl) carbonate]	–	21.3	0.00504	–	–
